{
  "source": "patent US9504729B2",
  "about": "“Antiangiogenic small molecules and methods of use” (The United States of America, as represented by the …, priority 2009, dated 2016)",
  "tested_on": "angiogenesis genes in dermal microvascular endothelial cells",
  "assay": "Real time RT-PCR of angiogenesis gene expression during endothelial tube formation",
  "format": "cell-based",
  "conditions": "1 μM SM, 24 hours",
  "method": "For gene expression studies, three independent experiments were run for each SM tested. 90.000 cells/well (6 wells/treatment) of dermal microvascular endothelial cells (Lonza, Walkersville, Md.) were seeded on polymerized GELTREX™ gel matrix (Invitrogen, Carlsbad, Calif.) in 24 well plates. Wells were immediately treated with the same volume of 1 μM SM or PBS. After 24 hours incubation at 37° C. and 5% CO2, cells were extracted using Cell Recovery Solution (BD Biosciences, San Jose, Calif., Cat. #354253). Total RNA was extracted with the RNeasy Mini Kit (Qiagen, Valencia, Calif., Cat. #74104), and retrotranscribed using […]® First-Strand reverse transcriptase (Invitrogen, Carlsbad, Calif., Cat. #11904-018). The real time PCR reactions were performed in an Opticon 2 cycler (MJ Research, Waltham, Mass.). Amplification was performed in a final volume of 25 μl, containing 2 μl cDNA (1:10 dilution from the reversed transcribed reaction) and 2 μl of primer mixture (10 μM each of forward and reverse primers). Samples were amplified as follows: after initial denaturation at 95 C for 2 minutes, reactions were run for 46 cycles at 95° C. for 30 seconds, 60° C. for 30 seconds, and 72° C. for 45 seconds. Fluorescence was measured in every cycle and a melting curve was run after the PCR by increasing temperature from 50 to 96° C. (in 0.5° C. increments). A defined single peak was obtained for all amplicons, thus confirming the specificity of the amplification.\nThe genes that were monitored were selected based on their relevance to the angiogenesis process. All experiments were done in triplicate. The results are shown in the volcano plots of FIG. 17. Log 2 fold-change is presented in the X-axis and log 10 P value in the Y-axis.",
  "data": [
    {"smiles": "COC(=O)C1CC(=O)C(C(=O)OC)CC1=O", "note": "(centres unmarked) [Compound 122567]", "values": [
      {"measurement": "Log2 fold-change of gene expression: 1839", "value": 1.0},
      {"measurement": "Log2 fold-change of gene expression: 4247", "value": 0.3},
      {"measurement": "Log2 fold-change of gene expression: 5569", "value": 0.8},
      {"measurement": "Log2 fold-change of gene expression: 8131", "value": 0.1},
      {"measurement": "Log2 fold-change of gene expression: 9569", "value": "−2.2"},
      {"measurement": "Log2 fold-change of gene expression: 10988", "value": 1.2},
      {"measurement": "Log2 fold-change of gene expression: 23001", "value": "−0.5"},
      {"measurement": "Log2 fold-change of gene expression: 55332", "value": "−1.0"},
      {"measurement": "Log2 fold-change of gene expression: 57722", "value": 0.1},
      {"measurement": "Log2 fold-change of gene expression: 58488", "value": 1.5},
      {"measurement": "Log2 fold-change of gene expression: 90780", "value": "−1.9"},
      {"measurement": "Log2 fold-change of gene expression: 134265", "value": "−0.2"},
      {"measurement": "Log2 fold-change of gene expression: AKT1", "value": "−1.6"},
      {"measurement": "Log2 fold-change of gene expression: ANGPT1", "value": 1.6},
      {"measurement": "Log2 fold-change of gene expression: ANGPT2", "value": "−0.9"},
      {"measurement": "Log2 fold-change of gene expression: ANGPTL3", "value": "−1.7"},
      {"measurement": "Log2 fold-change of gene expression: ANGPTL4", "value": "−0.4"},
      {"measurement": "Log2 fold-change of gene expression: ANPEP", "value": "−1.2"},
      {"measurement": "Log2 fold-change of gene expression: ANTXR1", "value": "−3.5"},
      {"measurement": "Log2 fold-change of gene expression: APOE", "value": 0.8},
      {"measurement": "Log2 fold-change of gene expression: ARHGEF1", "value": "−5.0"},
      {"measurement": "Log2 fold-change of gene expression: Acvrl1", "value": "−1.3"},
      {"measurement": "Log2 fold-change of gene expression: Adcy4", "value": "−0.4"},
      {"measurement": "Log2 fold-change of gene expression: BAL1", "value": 0.2},
      {"measurement": "Log2 fold-change of gene expression: BMP1", "value": 0.9},
      {"measurement": "Log2 fold-change of gene expression: C1orf54", "value": "−3.4"},
      {"measurement": "Log2 fold-change of gene expression: CALD1", "value": 2.3},
      {"measurement": "Log2 fold-change of gene expression: CCL2", "value": 2.5},
      {"measurement": "Log2 fold-change of gene expression: CCL11", "value": 0.6},
      {"measurement": "Log2 fold-change of gene expression: CD248", "value": 1.2},
      {"measurement": "Log2 fold-change of gene expression: CDH5", "value": "−1.9"},
      {"measurement": "Log2 fold-change of gene expression: CENTD3", "value": 1.1},
      {"measurement": "Log2 fold-change of gene expression: CLIC1", "value": 0.9},
      {"measurement": "Log2 fold-change of gene expression: COL4A3", "value": 1.9},
      {"measurement": "Log2 fold-change of gene expression: COL18A1", "value": 1.6},
      {"measurement": "Log2 fold-change of gene expression: COMT", "value": "−1.5"},
      {"measurement": "Log2 fold-change of gene expression: CST4", "value": 1.3},
      {"measurement": "Log2 fold-change of gene expression: CTTNBP2NL", "value": "−0.9"},
      {"measurement": "Log2 fold-change of gene expression: CXCL3", "value": 4.0},
      {"measurement": "Log2 fold-change of gene expression: CXCL5", "value": 4.3},
      {"measurement": "Log2 fold-change of gene expression: CXCL6", "value": 1.1},
      {"measurement": "Log2 fold-change of gene expression: CXCL9", "value": 1.6},
      {"measurement": "Log2 fold-change of gene expression: CXCL10", "value": 3.7},
      {"measurement": "Log2 fold-change of gene expression: Calcr1", "value": "−4.0"},
      {"measurement": "Log2 fold-change of gene expression: Caskin2", "value": "−2.3"},
      {"measurement": "Log2 fold-change of gene expression: Ccbp2", "value": 1.4},
      {"measurement": "Log2 fold-change of gene expression: Cldn5", "value": 0.0},
      {"measurement": "Log2 fold-change of gene expression: DGKG", "value": 2.0},
      {"measurement": "Log2 fold-change of gene expression: DKK3", "value": "−1.9"},
      {"measurement": "Log2 fold-change of gene expression: DLL4", "value": "−8.7"},
      {"measurement": "Log2 fold-change of gene expression: DUT", "value": "−1.8"},
      {"measurement": "Log2 fold-change of gene expression: EFNA1", "value": "−0.3"},
      {"measurement": "Log2 fold-change of gene expression: EFNA3", "value": "−0.4"},
      {"measurement": "Log2 fold-change of gene expression: EFNB2", "value": "−4.0"},
      {"measurement": "Log2 fold-change of gene expression: EGF", "value": "−0.3"},
      {"measurement": "Log2 fold-change of gene expression: ENG", "value": "−1.7"},
      {"measurement": "Log2 fold-change of gene expression: EPHB4", "value": "−0.5"},
      {"measurement": "Log2 fold-change of gene expression: EREG", "value": 1.9},
      {"measurement": "Log2 fold-change of gene expression: ESAM1", "value": "−2.9"},
      {"measurement": "Log2 fold-change of gene expression: EXTL3", "value": 0.3},
      {"measurement": "Log2 fold-change of gene expression: Egf17", "value": "−2.6"},
      {"measurement": "Log2 fold-change of gene expression: Ehd4", "value": "−0.8"},
      {"measurement": "Log2 fold-change of gene expression: Entpd1", "value": "−0.3"},
      {"measurement": "Log2 fold-change of gene expression: Epas1", "value": 0.9},
      {"measurement": "Log2 fold-change of gene expression: EphB1", "value": 0.8},
      {"measurement": "Log2 fold-change of gene expression: Erg", "value": 2.4},
      {"measurement": "Log2 fold-change of gene expression: FGF1", "value": 1.9},
      {"measurement": "Log2 fold-change of gene expression: FGF2", "value": "−0.7"},
      {"measurement": "Log2 fold-change of gene expression: FGFR3", "value": 1.2},
      {"measurement": "Log2 fold-change of gene expression: FIGF", "value": "−0.1"},
      {"measurement": "Log2 fold-change of gene expression: FLT1", "value": "−4.4"},
      {"measurement": "Log2 fold-change of gene expression: Fgd5", "value": "−1.5"},
      {"measurement": "Log2 fold-change of gene expression: GPCR124", "value": "−3.7"},
      {"measurement": "Log2 fold-change of gene expression: GRRP1", "value": "−0.3"},
      {"measurement": "Log2 fold-change of gene expression: Grp116", "value": "−2.3"},
      {"measurement": "Log2 fold-change of gene expression: HAND2", "value": 0.4},
      {"measurement": "Log2 fold-change of gene expression: HGF", "value": 1.3},
      {"measurement": "Log2 fold-change of gene expression: HIF1A", "value": "−3.1"},
      {"measurement": "Log2 fold-change of gene expression: HPSE", "value": "−8.3"},
      {"measurement": "Log2 fold-change of gene expression: Hspa12b", "value": "−3.4"},
      {"measurement": "Log2 fold-change of gene expression: ID1", "value": "−0.2"},
      {"measurement": "Log2 fold-change of gene expression: ID3", "value": "−0.3"},
      {"measurement": "Log2 fold-change of gene expression: IFNA1", "value": 1.1},
      {"measurement": "Log2 fold-change of gene expression: IFNB1", "value": 1.2},
      {"measurement": "Log2 fold-change of gene expression: IFNG", "value": 8.3},
      {"measurement": "Log2 fold-change of gene expression: IGF1", "value": "−0.1"},
      {"measurement": "Log2 fold-change of gene expression: IL1B", "value": "−0.1"},
      {"measurement": "Log2 fold-change of gene expression: IL6", "value": 14.4},
      {"measurement": "Log2 fold-change of gene expression: IL8", "value": 7.4},
      {"measurement": "Log2 fold-change of gene expression: ITGAV", "value": "−2.7"},
      {"measurement": "Log2 fold-change of gene expression: ITGB3", "value": "−1.4"},
      {"measurement": "Log2 fold-change of gene expression: Icam1", "value": 0.0},
      {"measurement": "Log2 fold-change of gene expression: Icam2", "value": 0.1},
      {"measurement": "Log2 fold-change of gene expression: JAG1", "value": 0.6},
      {"measurement": "Log2 fold-change of gene expression: KDR", "value": "−2.3"}
    ]}
  ]
}
